Experimental data published in US20200281873A1, “Adamantane or Bicyclic Monoterpenoid Derivatives for Use in the Treatment of Leishmaniasis” (Commissariat a l'Energie Atomique et aux Energies …, priority 2017, published 2020).
Like-named read-outs stand apart in the source and are kept apart here.

How the values were obtained:
[1] = tested on: L. infantum intramacrophagic amastigotes; assay: L. donovani infantum/RAW 264.7 macrophage model (intramacrophagic amastigotes, SYBR Green I); format: cell-based, Leishmania donovani infantum
Method: Protocol for Evaluation on the L. donovani infantum/RAW 264.7 Macrophage Model (Intramacrophagic Amastigotes)
Mouse macrophage cells RAW 264.7 (ATCC) were seeded into a 96-well microplate and maintained in DMEM medium (Applied Biosystems, France) supplemented with 10% heat-inactivated fetal bovine serum in a 5% CO2 incubator at 37° C. for 24 h. Then, the medium was replaced with 100 μL fresh medium containing a suspension of 10^5 L. infantum amastigotes and the incubation time was 16 h. Then, extracellular parasites were eliminated from the medium and 100 μL fresh medium containing compound in various concentrations were added for a 48 h-incubation. Parasite growth was determined by using SYBR® Green I (Life technology, Fisher Scientific, France), a dye with marked fluorescence enhancement upon contact with DNA. The cell lysis suspension was diluted 1:1 in lysis buffer (10 mM NaCl, 1 mM Tris HCl pH8, 2.5 mM EDTA pH 8, 0.05% SDS, 0.01 mg/mL proteinase K and 10×SYBR Green I). Incorporation of SYBR Green I in DNA amplification was measured using the Master epRealplex cycler® (Eppendorf, France) according to the following program to increase the SYBR green incorporation: 90° C. for 1 min, decrease in temperature from 90° C. to 10° C. for 5 min with reading the fluorescence at 10° C. for 1 min and a new reading at 10° C. for 2 min. The EC50 as the concentration inhibiting the parasite growth by 50% was calculated by nonlinear regression using icestimator website 1.2 version: http://www.antimalarial-icestimator.net/MethodIntro.htm.

[2] = tested on: Leishmania infantum axenic amastigotes; assay: Evaluation on Leishmania donovani infantum axenic amastigotes (SYBR Green I); format: cell-based
Method: Protocol for Evaluation on Leishmania donovani infantum Axenic Amastigotes
Amastigote forms of the parasite were suspended to yield 10^7 parasitic cells mL^−1. The maximum final compound concentration used was 100 μM. Triplicates were used for each concentration. Cultures were incubated at 37° C. for 72 h in the dark and under a 5% CO2 atmosphere, then the viability of the amastigotes was assessed using the SYBR® Green I (Invitrogen, France) incorporation method. Parasite growth was determined by using SYBR® Green I, a dye with marked fluorescence enhancement upon contact with parasite DNA. Parasites were lysed and quantified by Direct PCR-Cell Genotyping without DNA isolation protocol (Euromedex, France). 10 μL of lysed parasite solution from each well was added to 40 μL of PCR-Cell reagent containing the SYBR® green I in a qPCR plate of 96 wells, and the contents were mixed. Fluorescence was measured with Mastercycler® ep realplex (Eppendorf, France). Measured fluorescence was compared to that from the range obtained with different parasite densities. The antileishmanial activity was expressed as IC50 in μM (concentration of drug inhibiting 50% of the parasite growth, comparatively to the controls treated with the excipient only).

[3] = tested on: L. infantum intramacrophagic amastigotes; assay: L. donovani infantum/RAW 264.7 macrophage model (intramacrophagic amastigotes, SYBR Green I); format: cell-based, Leishmania donovani infantum; conditions: Table I; ratio
RAW 264.7 macrophages = assay: Cytotoxicity on RAW 264.7 macrophages; format: cell-based, Mouse; conditions: Table I
[4] = Cytotoxicity on RAW 264.7 macrophages; format: cell-based, Mouse; conditions: mouse, RAW 264.7 macrophages; Table I
[5] = tested on: L. donovani (MHOM/ET/67/HU3) amastigotes; assay: In vivo antileishmanial evaluation, Leishmania donovani/Balb/c mouse model (liver parasite load); conditions: for % reduction of parasite burden in the liver / LDU ± SD (parasites in the liver): Balb/c mice
Method: Compounds VP343, VP370 were evaluated in vivo for their antileishmanial properties by oral and intravenous route on the Leishmania donovani/Balb/c mouse model, comparatively to miltefosine, used as reference drug, according to a previously described protocol (Balaraman et al., 2015). Six- to eight-week-old Balb/c mice (Élevages Janvier, Le Genest Saint Isle, France) were infected intravenously on day 1 with 10^7 L. donovani (MHOM/ET/67/HU3) amastigotes derived from the spleen of hamsters and randomly sorted into four groups of 10 mice and one group of 12 mice as infected controls but not treated. The treatment administered orally or intravenously, started one week post-infection, on day 8, and continued for 5 consecutive days. At day 15, all groups of mice were autopsied and livers and spleens were weighed. Parasite load in the liver was determined by counting the number of amastigotes/500 liver cells in Giemsa-stained impression smears prepared from the liver and applying Stauber's formula. Three researchers counted the slides independently and the results are expressed as the mean values±SD. The parasite burden of treated groups and controls were compared using Student's t-test or the Kruskal-Wallis nonparametric analysis of variance test for comparing two groups. Significance was established for a P value<0.05.

[6] = In vivo toxicity evaluation by oral route in mice (serum biochemical parameters); parameters: species or system Balb/C female mice; Serum urea: unit not given here
Method: Biochemical parameters relative to VP343 and VP370 toxicity in Balb/C female mice (18-20 g) after a single treatment by oral route at 100 mg/kg under a 0.1 mL volume (=5 mL/kg). Serum were collected one week after the treatment. Excipient: Methylcellulose 1%+Tween 0.1%.
Dosages were performed with a Cobas 800 (Roche/Hitachi) apparatus.

[7] = Leishmania infantum, Macrophage, Table II, 3 different experiments, SYBR Green I method, read-out: IC50 intramacrophagic
[8] = Leishmania infantum, Table II, 3 different experiments, SYBR Green I method, read-out: IC50 axenic
[9] = Leishmania infantum, RAW264.7, Table I, RAW 264.7 macrophages, 48 h incubation, read-out: Intramacrophagic amastigotes IC50
[10] = Leishmania infantum, Table I, 72 h incubation, read-out: Axenic amastigotes IC50
[11] = intravenous route, 10 mg/kg/day × 5
[12] = single oral treatment 100 mg/kg, serum one week after treatment

Structure (SMILES) | IC50 [1, 7] [µM] | IC50 [2, 8] [µM] | other results
C[C@@H]1[C@H](O)[C@@H](C)/C=C/C=C/C=C/C=C/C=C/C=C/C=C/[C@H](O[C@@H]2O[C@H](C)[C@@H](O)[C@H](N)[C@@H]2O)C[C@@H]2O[C@](O)(C[C@@H](O)C[C@@H](O)[C@H](O)CC[C@@H](O)C[C@@H](O)CC(=O)O[C@H]1C)C[C@H](O)[C@H]2C(=O)O [Amphotericin B, reference compound] | – | – | Selectivity IC50 (Axenic amastigotes)/IC50 (Intramacrophagic amastigotes) [3]: <1; CC50 (RAW 264.7 macrophages): 4.5 ± 0.4 µM; IC50 ([1]; Table I, RAW 264.7 macrophages, 48 h incubation, read-out: Intramacrophagic amastigotes IC50): 0.047 ± 0.005 µM; IC50 ([2]; Table I, 72 h incubation, read-out: Axenic amastigotes IC50): 0.031 ± 0.002 µM
COc1ccc(OC)c(CN[C@H]2C[C@H]3C[C@@H]([C@@H]2C)C3(C)C)c1 [VP369] | 0.11 | 15.5 | –
C[C@@H]1[C@@H](NCc2c[nH]c3ccccc23)C[C@H]2C[C@@H]1C2(C)C [VP359] | 0.25 | > 100 | –
COc1ccc(Br)cc1CN[C@@H]1C[C@H]2CC[C@]1(C)C2(C)C [VP305] | 0.06 | < 0.5 | –
COc1ccc(Br)cc1/C=N/C12CC3CC(CC(C3)C1)C2 [VP300A] | 0.21 | 4.53 | –
CCCCCCCCCCCCCCCCOP(=O)([O-])OCC[N+](C)(C)C [Miltefosine, reference compound] | – | – | Selectivity IC50 (Axenic amastigotes)/IC50 (Intramacrophagic amastigotes) [3]: 1.4; CC50 [4]: 12.5 ± 1.3 µM; IC50 [1, 9]: 0.85 ± 0.2 µM; IC50 [2, 10]: 1.2 ± 0.5 µM; % reduction of parasite burden in the liver [5, 11]: 65.9%; LDU ± SD (parasites in the liver) [5, 11]: 0.36 ± 0.08 ×10^8; % reduction of parasite burden in the liver ([5]; oral route, 10 mg/kg/day × 5): 84.6%; LDU ± SD (parasites in the liver) ([5]; oral route, 10 mg/kg/day × 5, autopsy day 15): 0.19 ± 0.09 ×10^9
COc1ccc(Br)cc1CNC12CC3CC(CC(C3)C1)C2 [ABMA] | 7.1 | > 100 | Selectivity IC50 (Axenic amastigotes)/IC50 (Intramacrophagic amastigotes) [3]: >14; CC50 [4]: 25.3 ± 2.4 µM; IC50 [1, 9]: 7.1 ± 1.7 µM; IC50 [2, 10]: > 100 µM
C[C@@H]1[C@@H](NCc2ncc[nH]2)C[C@H]2C[C@@H]1C2(C)C [VP358] | 0.57 | 13 | –
COc1cccc(OC)c1CN[C@H]1C[C@H]2C[C@@H]([C@@H]1C)C2(C)C [VP370] | 0.04 | 36.3 | Serum AST ± SD [6, 12]: 330 ± 68 U/L; Serum AST ± SD (second AST column) [6, 12]: 197 ± 41 U/L; Serum creatinin [6, 12]: <18 µM; Serum urea [6, 12]: 7.9 ± 1.5; Toxicity after single oral treatment (in words) ([6]; single treatment by oral route at 100 mg/kg): did not show toxicity; % reduction of parasite burden in the liver ([5]; oral route, 20 mg/kg/day × 5): 62.7%; LDU ± SD (parasites in the liver) ([5]; oral route, 20 mg/kg/day × 5, autopsy day 15): 0.46 ± 0.12 ×10^9; Activity in vivo by oral route (in words) ([5]; VP343 and VP370 at 20 mg/kg/day×5, VP343 also at 10 mg/kg/day×5, Tukey's multiple comparisons test): significantly active

The next lines start with results.

IC50 [1, 7] [µM] | IC50 [2, 8] [µM] | Structure (SMILES) | other results
0.5 | 9.72 | C[C@@H]1[C@@H](NCc2ccc3c(c2)Cc2ccccc2-3)C[C@H]2C[C@@H]1C2(C)C [VP397] | –
0.21 | 7.55 | Cc1ccccc1CN[C@H]1C[C@H]2C[C@@H]([C@@H]1C)C2(C)C [VP391] | –
0.17 | 58.8 | C[C@@H]1[C@@H](NCc2cc(F)ccc2F)C[C@H]2C[C@@H]1C2(C)C [VP381] | –
0.21 | 5.56 | Cc1ccc(-c2ccc(CN[C@H]3C[C@H]4C[C@@H]([C@@H]3C)C4(C)C)cc2)cc1 [VP396] | –
0.25 | 4.86 | COc1ccc(Br)cc1CN[C@@H]1C[C@@H]2C[C@H]([C@H]1C)C2(C)C [VP330] | –
0.39 | 3.7 | C[C@@H]1[C@@H](NCc2cccc(Br)c2)C[C@H]2C[C@@H]1C2(C)C [VP361] | –
0.19 | 30.5 | C[C@@H]1[C@@H](NCc2cccc(Cl)c2)C[C@H]2C[C@@H]1C2(C)C [VP371] | –
0.29 | 8.9 | C[C@@H]1[C@@H](NCc2ccc(-n3ccnc3)cc2)C[C@H]2C[C@@H]1C2(C)C [VP393] | –
0.19 | 9.99 | COc1ccccc1CN[C@H]1C[C@H]2C[C@@H]([C@@H]1C)C2(C)C [VP363] | –
0.27 | 21.6 | C[C@@H]1[C@@H](NCc2ccc(I)cc2)C[C@H]2C[C@@H]1C2(C)C [VP390] | –
0.42 | 4.1 | C[C@@H]1[C@@H](NCc2ccoc2)C[C@H]2C[C@@H]1C2(C)C [VP354] | –
